The source of these data is patent publication US4139605A, “Water-soluble, non-ionizing, radiopaque compounds and contrast compositions containing the same” (Bracco Industria Chimica S.p.A., priority 1977, dated 1979).

SMILES strings stand for the structures. Values after ≈ are worked out from the molar mass of the structure shown. “Also recorded” adds a separate entry of the source. Where two headings read alike, the source gives them in different places.

For data set [1], the system named is mouse. Nature of the data set: Toxicity, LD50 48 hours after intracerebral injection in mice. The data set is classed as in vivo. To be noted: 48 hours after injection. The method, then: (§1) Toxicity is listed as LD50 in mg I/kg body weight 12 days after intravenous injection and 48 hours after intracerebral injection in mice. The osmotic pressure was determined at 37° C. in solutions containing 400 mg I per ml, unless specifically noted otherwise, and is indicated in atmospheres.

Data set [2] is described as follows: Osmotic pressure of aqueous solutions at 37° C. The data set is classed as physicochemical. As for the experimental part:
as §1

Data set [3] can be described thus: Solubility in water, methanol and ethanol. The data set is classed as physicochemical.
The nature of data set [4]: Viscosity of aqueous solutions at body temperature. The data set is classed as physicochemical. To be noted: aqueous solutions containing.
A short description of data set [5]: General toxicity and side effects. The data set is classed as in vivo. To be noted: in words.
The nature of data set [6]: Stability and storage life of solutions. The data set is classed as physicochemical. To be noted: aqueous solutions.
The subject of data set [7] is mouse. Nature of the data set: Toxicity, LD50 12 days after intravenous injection in mice. To be noted: 12 days after injection. The data set is classed as in vivo. As for the experimental part: Properties of compounds A, B, C, D of this invention, of the chemically nearest known compounds E, F, and of chemically less closely related known radiopaque compounds G, H, I used heretofore for visualizing blood vessels and cavities of the spinal cord and the brain are listed in the Table hereinbelow. Toxicity is listed as LD50 in mg I/kg body weight 12 days after intravenous injection and 48 hours after intracerebral injection in mice. The osmotic pressure was determined at 37° C. in solutions containing 400 mg I per ml, unless specifically noted otherwise, and is indicated in atmospheres.

For data set [8], the system named is rabbits. Nature of the data set: Intracisternal toxicity, LD50 (48 hours) in rabbits. The data set is classed as in vivo. The method, then:
The preferred compounds of the invention are those identified in the table above by letters B and C. […] LD50 (48 hours) in rabbits is about 233 mg I per kg.

Where [9] appears, read: water, 20° C., read-out: solubility in water.

As to `CC(O)C(=O)Nc1c(I)c(C(=O)NCCOCCOCCNC(=O)c2c(I)c(NC(=O)C(C)O)c(I)c(C(=O)NC(CO)CO)c2I)c(I)c(C(=O)NC(CO)CO)c1I` (stereo not shown) [Compound A, 1,8-bis-[5,-(1,3-dihydroxyisopropyl)aminocarbonyl-3-(2-hydroxypropionyl)amino-2,4,6-triiodo-benzoylamino]-3,6,dioxaoctane], the “Toxicity, LD50, intracerebral” value in data set [1] was found to be 1100 mg I/kg. In data set [2] (400 mg I per ml), the Osmotic pressure came to 8.15 atm. Moreover, the solubility in ethanol entry was “about 2.5%” in data set [3] (boiling ethanol); “sparingly soluble in ethanol” in data set [3] (ethanol, in words); “about 1%” in data set [3] (ethanol, room temperature). Moreover, the solubility in methanol result in data set [3] (methanol, in words) is given as “soluble in methanol”. Also, the solubility in data set [3] (setting [9]) is approximately 500 mg/mL (≈ 329 mM); in data set [3] (water, boiling temperature, read-out: solubility in water), approximately 1000 mg/mL (≈ 658 mM).

Regarding `CC(O)C(=O)Nc1c(I)c(C(=O)NCCCOCCOCCOCCOCCCNC(=O)c2c(I)c(NC(=O)C(C)O)c(I)c(C(=O)NC(CO)CO)c2I)c(I)c(C(=O)NC(CO)CO)c1I` (stereo not shown) [Compound B, 1,16-bis-[5-(1,3-dihydroxyisopropyl)aminocarbonyl-3-(2-hydroxypropionyl)amino-2,4,6-triiodobenzoylamino]-4,7,10,13-tetraoxahexadecane], the viscosity entry in data set [4] is “relatively low viscosity”. For the same molecule, the side effects result in data set [5] was “lack of side effects”. Further, in data set [6], the stability of solutions entry was “stable” and the “storage life of solutions” value is “long storage life”. In addition, the “Toxicity, LD50, intracerebral” value in data set [1] was determined as 990 mg I/kg. Moreover, the solubility in data set [3] (methanol, organic solvent or mixture, boiling methanol, read-out: solubility in methanol) worked out at 500 mg/mL (≈ 306 mM). The solubility in data set [3] (setting [9]) is approximately 1000 mg/mL (≈ 611 mM).

In the case of `CC(O)C(=O)Nc1c(I)c(C(=O)NC(CO)CO)c(I)c(C(=O)N(C)CCOCCOCCOCCN(C)C(=O)c2c(I)c(NC(=O)C(C)O)c(I)c(C(=O)NC(CO)CO)c2I)c1I` (stereo not shown) [Compound C, 1,11-bis [N-methyl-N-{5-(1,3-dihydroxyisopropyl)aminocarbonyl-3-(2-hydroxypropionyl)amino-2,4,6-triiodobenzoyl}-amino]-3,6,9-trioxaundecane], the viscosity entry in data set [4] is given as “relatively low viscosity”. For the same molecule, the “Toxicity, LD50, intravenous” value in data set [7] is 14000 mg I/kg. Further, in data set [5], the side effects entry is listed as “lack of side effects”. Besides, the intracisternal toxicity result in data set [8] (in words) was “particularly low”. Further, the “LD50 (48 hours), intracisternal” value in data set [8] (rabbits, 48 hours) was “about 233 mg I per kg”. In data set [6], the stability of solutions entry was “stable” and the “storage life of solutions” value is reported as “long storage life”. Also, in data set [1], the “Toxicity, LD50, intracerebral” value is on record as 1130 mg I/kg. The Osmotic pressure in data set [2] (400 mg I per ml) was 10.59 atm. The solubility in ethanol result in data set [3] (ethanol, in words) was “only moderately well in ethanol”. Also, in data set [3] (water, in words), the solubility in water entry is “dissolves readily in water”.

As for `CC(O)C(=O)Nc1c(I)c(C(=O)NC(CO)CO)c(I)c(C(=O)N(C)CCCOCCOCCOCCOCCCN(C)C(=O)c2c(I)c(NC(=O)C(C)O)c(I)c(C(=O)NC(CO)CO)c2I)c1I` (stereo not shown) [Compound D, 1,16-bis-[N-methyl-N-{5-(1,3-dihydroxyisopropyl)aminocarbonyl-3-(2-hydroxypropionyl)amino-2,4,6-triiodobenzoyl}amino]-4,7,10,13-tetraoxahexadecane], in data set [1], the “Toxicity, LD50, intracerebral” value stood at 1420 mg I/kg. This molecule also had an Osmotic pressure in data set [2] (400 mg I per ml) of 9.42 atm. For the same molecule, the solubility in methanol result in data set [3] (methanol, in words) is listed as “soluble in methanol”. For the same molecule, in data set [3] (water, in words), the solubility in water result is listed as “dissolves very readily in water; also recorded: readily dissolved in water”.

Turning to `CC(O)C(=O)Nc1c(I)c(C(=O)NC(CO)CO)c(I)c(C(=O)NC(CO)CO)c1I` (stereo not drawn) [E, 5-α-hydroxypropionylamino-2,4,6-triiodo-isophthalic acid-bis-(1,3-dihydroxyisopropylamide)], the “Toxicity, LD50, intravenous” value in data set [7] turned out to be 21800 mg I/kg. Further, the “Toxicity, LD50, intracerebral” value in data set [1] was 1500 mg I/kg. The molecule further registered an Osmotic pressure in data set [2] (400 mg I per ml) of 22.2 atm.

Turning to `CC(O)C(=O)Nc1c(I)c(C(=O)NCCCOCCOCCOCCOCCCNC(=O)c2c(I)c(NC(=O)C(C)O)c(I)c(C(=O)NC(C)(CO)CO)c2I)c(I)c(C(=O)NC(C)(CO)CO)c1I` (stereo not shown) [Example 9, 1,16-bis-[5-(1,3-dihydroxy-2-methyl-2propyl)aminocarbonyl-3-(2-hydroxypropionyl)amino-2,4,6-triiodo-benzoylamino]-4,7,10,13tetraoxahexadecane], in data set [3] (water, in words), the solubility in water entry is on record as “dissolves readily in water”.

On to `CC(O)C(=O)Nc1c(I)c(C(=O)NCCOCCOCCOCCOCCNC(=O)c2c(I)c(NC(=O)C(C)O)c(I)c(C(=O)NC(C)(CO)CO)c2I)c(I)c(C(=O)NC(C)(CO)CO)c1I` (stereo not shown) [Example 10, 1,14-bis-[5-(1,3-dihydroxy-2methyl-2-propyl)aminocarbonyl-3-(2-hydroxypropionyl)amino-2,4,6-triiodo-benzoylamino]-3,6,9,12-tetraoxatetradecane], for which the solubility in water result in data set [3] (water, in words) is listed as “dissolved readily in water”.

As for `CC(O)C(=O)Nc1c(I)c(C(=O)NCCOCCNC(=O)c2c(I)c(NC(=O)C(C)O)c(I)c(C(=O)NC(C)(CO)CO)c2I)c(I)c(C(=O)NC(C)(CO)CO)c1I` (stereo not shown) [Example 11, 1,5-Bis-[5-(1,3-dihydroxy-2-methyl-2-propyl)aminocarbonyl-3-(2-hydroxypropionyl)amino-2,4,6-triiodo-benzoylamino]-3-oxapentane], the solubility in data set [3] (water, per 100 ml, 20° C., read-out: solubility in water) was more than 1000 mg/mL.

As to `O=C(CO)Nc1c(I)c(C(=O)NCCOCCOCCOCCOCCNC(=O)c2c(I)c(NC(=O)CO)c(I)c(C(=O)NC(CO)CO)c2I)c(I)c(C(=O)NC(CO)CO)c1I` [Example 12, 1,14-bis-[5-(1,3-dihydroxyisopropyl)aminocarbonyl-3-hydroxy-acetylamino-2,4,6-triiodo-benzoylamino]-3,6,9,12-tetraoxa-tetradecane], the solubility in water entry in data set [3] (water, in words) is recorded as “readily dissolved in water”.

In the case of `CC(=O)Nc1c(I)c(C(=O)N[C@H]2C(O)O[C@H](CO)[C@@H](O)[C@@H]2O)c(I)c(N(C)C(C)=O)c1I` (stereo partly shown) [F, 3-acetylamino-5-N-methyl-acetylamino-2,4,6-triiodo-benzoyl-glucosamine], the “Toxicity, LD50, intravenous” value in data set [7] is listed as 10200 mg I/kg. Also, the “Toxicity, LD50, intracerebral” value in data set [1] was 1400 mg I/kg. For the same molecule, the Osmotic pressure in data set [2] (400 mg I per ml) came out at 14.7 atm.

In the case of `CNC(=O)c1c(I)c(NC(=O)CCCCC(=O)Nc2c(I)c(C(=O)O)c(I)c(C(=O)NC)c2I)c(I)c(C(=O)O)c1I` [G, 5,5'-adipoyldiimino-bis-(2,4,6-triiodo-N-methyl-isophthalamic acid)], the “Toxicity, LD50, intravenous” value in data set [7] is on record as 5500 mg I/kg. For the same molecule, the “Toxicity, LD50, intracerebral” value in data set [1] is listed as 600 mg I/kg. This molecule displayed an Osmotic pressure in data set [2] (280 mg I/ml) of 27.5 atm.

Turning to `CNC(=O)c1c(I)c(NC(=O)CN(CC(=O)Nc2c(I)c(C(=O)O)c(I)c(C(=O)NC)c2I)CC(=O)Nc2c(I)c(C(=O)O)c(I)c(C(=O)NC)c2I)c(I)c(C(=O)O)c1I` [H, 5,5',5"-(nitrilotriacetyl-triimino-tris-)-2,4,6-triiodo-N'-methyl-isophthalamic acid], in data set [7], the “Toxicity, LD50, intravenous” value is on record as 5800 mg I/kg. In data set [2] (400 mg I per ml), this molecule displayed an Osmotic pressure of 36.2 atm.

`CC(=O)Nc1c(I)c(NC(C)=O)c(I)c(C(=O)O)c1I` [I, 3,5-bis-acetylamino-2,4,6-triiodobenzoic acid]: the “Toxicity, LD50, intravenous” value in data set [7] was determined as 7600 mg I/kg.
